Measurements reported in ChEMBL document CHEMBL1131563, “Effects of alpha- and beta-galactosylated C2-ceramides on the immune system” (J Med Chem, 1998).

How the values were obtained:
[1] = species on record: Mus musculus; assay: Concentration at which compound induced concentration-dependent stimulation of the MLR responses in murine spleen cells; range = 80 ng/mL to 2 ug/mL; format: functional, cell-based
[2] = species on record: Mus musculus; assay: Concentration at which compound suppressed the MLR response (mixed leukocyte reaction) in murine spleen cells; range = 80 ng/mL to 2 ug/mL; format: functional, cell-based

Compound | Concentration [1] | Concentration [2]
CCCCCCCCCCCCC/C=C/[C@@H](O)[C@H](CO[C@@H]1O[C@@H](CO)[C@H](O)[C@H](O)[C@@H]1O)NC(C)=O | 2 µg/mL | 
CCCCCCCCCCCCC/C=C/[C@@H](O)[C@H](CO)NC(C)=O |  | 2 µg/mL
